Patent US12097173B2, “Volatile organic compound formulations having antimicrobial activity” (priority 2019, dated 2024)

Experiments:
Assay type in all cases: cell-based
Cercospora beticola = experiment: plate bioassay of volatile test mixtures, growth inhibition; details: 30 hr at 22° C.; esters with 1:1 v/v propanoic acid and isobutryic acid (acids to ester 7:2 v/v), 9 ul; acids 7 ul
Method: (§1) FIG. 1 illustrates a plate bioassay to determine the bioactivity of various esters when combined with a 1:1 mix of the two organic acids as per Table 2. The test organisms were as follows—Cercospora (dark-lower left bottom) then clockwise—Phytophthora, Verticillium, Sclerotinia, Pythium. Fusarium, Trichoderma, Rhizoctonia, and Aspergillus. The streaks were Saccharomyces (far right bottom) then Candida, E coli and Bacillus (left bottom). A=control plate, and B=plate with System 1 after incubation for 30 hr.
(§2) FIG. 9 depicts the biological activities of various test mixtures against a panel of test microbes. A small plug of each organism was placed in the periphery of the PDA plate. In the center well was placed the test solution in the plastic cup holder. A control plate (A) was also set up. After 30 hr the growth of the test organisms was compared to that of the control and the % inhibition was calculated. The (B) plate contained the test mixture. Measurements were made 30 hr after plate set up.
(§3) FIG. 1. Indicates how the assays were done to yield the data sets in Table 1. The various esters were combined with a 1:1 mixture of propanoic acid and isobutryic acid and these were added 7:2 V/V with the ester to be tested.
(§4) Shown in Table 1, are the inhibition and killing effects of propanoic acid, and isobutryic acid together and alone and with various esters. The tests were conducted over the course of 30 hr at 22° C. Measurements were made on appropriate controls and thus the percentage of inhibition calculations could be made on treatments vs the growth on a control organism (non-treated). The bacteria and yeast like organisms were evaluated on the basis of relative growth rates after 30 hr. Those highlighted areas on the table show those compounds (esters) having the most compatibility with propanoic and isobutryic acid 1:1 v/v mixtures with the appropriate esters at a 7:2 ratio—Systems 1 and 2 above. It is from this test that Systems 1 and 2 were discovered. The acids were added at […] individually and combination of the esters with the acids were added at the […] in the plate assay.
(§5) Tests were conducted as similarly described for Systems 1 and 2 above (FIG. 9) to ascertain the biological activities of various test mixtures against a panel of test microbes. A small plug of each organism was placed in the periphery of the PDA plate. In the center well was placed the test solution in the plastic cup holder. A control plate (A) was also set up. After 30 hr the growth of the test organisms was compared to that of the control and the % inhibition was calculated. The (B) plate contained the test mixture. Measurements were made 30 hr after plate set up.

Phytophthora cinnamomi = experiment: as above; details: 30 hr at 22° C.; esters with 1:1 v/v propanoic acid and isobutryic acid (acids to ester 7:2 v/v), 9 ul; acids 7 ul
Method: as §1, §2, §3, §4, §5

Pythium ultimum = experiment: as above; details: 30 hr at 22° C.; esters with 1:1 v/v propanoic acid and isobutryic acid (acids to ester 7:2 v/v), 9 ul; acids 7 ul
Method: as §1, §2, §3, §4, §5

Rhizoctonia solani = experiment: as above; details: 30 hr at 22° C.; esters with 1:1 v/v propanoic acid and isobutryic acid (acids to ester 7:2 v/v), 9 ul; acids 7 ul
Method: as §1, §2, §3, §4, §5

Trichoderma viridae = experiment: as above; details: 30 hr at 22° C.; esters with 1:1 v/v propanoic acid and isobutryic acid (acids to ester 7:2 v/v), 9 ul; acids 7 ul
Method: as §1, §2, §3, §4, §5

Verticillium dahliae = experiment: as above; details: 30 hr at 22° C.; esters with 1:1 v/v propanoic acid and isobutryic acid (acids to ester 7:2 v/v), 9 ul; acids 7 ul
Method: as §1, §2, §3, §4, §5

Sclerotinia sclerotiorum = experiment: as above; details: 30 hr at 22° C.; esters with 1:1 v/v propanoic acid and isobutryic acid (acids to ester 7:2 v/v), 9 ul; acids 7 ul
Method: as §1, §2, §3
The tests were conducted over the course of 30 hr at 22° C. Measurements were made on appropriate controls and thus the percentage of inhibition calculations could be made on treatments vs the growth on a control organism (non-treated). The bacteria and yeast like organisms were evaluated on the basis of relative growth rates after 30 hr. […] The acids were added at […] individually and combination of the esters with the acids were added at the […] in the plate assay.
as §5

Aspergillus fumigatus = experiment: as above; details: 30 hr at 22° C.; esters with 1:1 v/v propanoic acid and isobutryic acid (acids to ester 7:2 v/v), 9 ul; acids 7 ul
Method: as §1, §3, §4

Fusarium subglutinans = experiment: as above; details: 30 hr at 22° C.; esters with 1:1 v/v propanoic acid and isobutryic acid (acids to ester 7:2 v/v), 9 ul; acids 7 ul
Method: as §1, §3, §4

Bacillus subtilus = experiment: plate bioassay of volatile test mixtures, relative growth of streak; details: relative growth after 30 hr at 22° C.; esters with 1:1 v/v propanoic acid and isobutryic acid (7:2 v/v), 9 ul; acids 7 ul
Method: as §1, §2, §3, §4, §5

Candida albicans = experiment: as above; details: relative growth after 30 hr at 22° C.; esters with 1:1 v/v propanoic acid and isobutryic acid (7:2 v/v), 9 ul; acids 7 ul
Method: as §1, §2, §3, §4, §5

Escherichia coli = experiment: as above; details: relative growth after 30 hr at 22° C.; esters with 1:1 v/v propanoic acid and isobutryic acid (7:2 v/v), 9 ul; acids 7 ul
Method: as §1, §2, §3, §4, §5

Saccharomyces cerevicae = experiment: as above; details: relative growth after 30 hr at 22° C.; esters with 1:1 v/v propanoic acid and isobutryic acid (7:2 v/v), 9 ul; acids 7 ul
Method: as §1, §2, §3, §4, §5

CCCCOC(=O)C(C)C [Butyl Isobutyrate]
inhibition of Cercospora beticola (Cercospora beticola): 95% | inhibition of Phytophthora cinnamomi (Phytophthora cinnamomi): 0% | inhibition of Pythium ultimum (Pythium ultimum): 100% | inhibition of Rhizoctonia solani (Rhizoctonia solani): 97% | inhibition of Trichoderma viridae (Trichoderma viridae): 40% | inhibition of Verticillium dahliae (Verticillium dahliae): 60% | inhibition of Sclerotinia sclerotiorum (Sclerotinia sclerotiorum): 0% | inhibition of Aspergillus fumigatus (Aspergillus fumigatus): 0% | inhibition of Fusarium subglutinans (Fusarium subglutinans): 0% | growth of Bacillus subtilus (Bacillus subtilus): No Growth | growth of Candida albicans (Candida albicans): Growth Observed | growth of Escherichia coli (Escherichia coli): No Growth | growth of Saccharomyces cerevicae (Saccharomyces cerevicae): Growth Observed

CCOC(=O)C(C)C [Ethyl Isobutyrate]
inhibition of Cercospora beticola (Cercospora beticola): 95% | inhibition of Phytophthora cinnamomi (Phytophthora cinnamomi): 100% | inhibition of Pythium ultimum (Pythium ultimum): 100% | inhibition of Rhizoctonia solani (Rhizoctonia solani): 100% | inhibition of Trichoderma viridae (Trichoderma viridae): 67% | inhibition of Verticillium dahliae (Verticillium dahliae): 80% | inhibition of Sclerotinia sclerotiorum (Sclerotinia sclerotiorum): 90% | inhibition of Aspergillus fumigatus (Aspergillus fumigatus): 80% | inhibition of Fusarium subglutinans (Fusarium subglutinans): 67% | growth of Bacillus subtilus (Bacillus subtilus): No Growth | growth of Candida albicans (Candida albicans): Growth Observed | growth of Escherichia coli (Escherichia coli): No Growth | growth of Saccharomyces cerevicae (Saccharomyces cerevicae): Growth Observed

CCCC(=O)OCCC(C)C [Isoamyl Butyrate]
inhibition of Cercospora beticola (Cercospora beticola): 100% | inhibition of Phytophthora cinnamomi (Phytophthora cinnamomi): 100% | inhibition of Pythium ultimum (Pythium ultimum): 100% | inhibition of Rhizoctonia solani (Rhizoctonia solani): 100% | inhibition of Trichoderma viridae (Trichoderma viridae): 90% | inhibition of Verticillium dahliae (Verticillium dahliae): 100% | inhibition of Sclerotinia sclerotiorum (Sclerotinia sclerotiorum): 95% | inhibition of Aspergillus fumigatus (Aspergillus fumigatus): 90% | inhibition of Fusarium subglutinans (Fusarium subglutinans): 100% | growth of Bacillus subtilus (Bacillus subtilus): No Growth | growth of Candida albicans (Candida albicans): No Growth | growth of Escherichia coli (Escherichia coli): No Growth | growth of Saccharomyces cerevicae (Saccharomyces cerevicae): Growth Observed

CC(C)CCOC(=O)C(C)C [Isoamyl Isobutyrate]
inhibition of Cercospora beticola (Cercospora beticola): 95% | inhibition of Phytophthora cinnamomi (Phytophthora cinnamomi): 97% | inhibition of Pythium ultimum (Pythium ultimum): 100% | inhibition of Rhizoctonia solani (Rhizoctonia solani): 100% | inhibition of Trichoderma viridae (Trichoderma viridae): 67% | inhibition of Verticillium dahliae (Verticillium dahliae): 96% | inhibition of Sclerotinia sclerotiorum (Sclerotinia sclerotiorum): 80% | inhibition of Aspergillus fumigatus (Aspergillus fumigatus): 80% | inhibition of Fusarium subglutinans (Fusarium subglutinans): 67% | growth of Bacillus subtilus (Bacillus subtilus): No Growth | growth of Candida albicans (Candida albicans): Growth Observed | growth of Escherichia coli (Escherichia coli): No Growth | growth of Saccharomyces cerevicae (Saccharomyces cerevicae): Growth Observed

CC(=O)OCC(C)C [Isobutyl Acetate]
inhibition of Cercospora beticola (Cercospora beticola): 95% | inhibition of Phytophthora cinnamomi (Phytophthora cinnamomi): 67% | inhibition of Pythium ultimum (Pythium ultimum): 100% | inhibition of Rhizoctonia solani (Rhizoctonia solani): 57% | inhibition of Trichoderma viridae (Trichoderma viridae): 20% | inhibition of Verticillium dahliae (Verticillium dahliae): 60% | inhibition of Sclerotinia sclerotiorum (Sclerotinia sclerotiorum): 20% | inhibition of Aspergillus fumigatus (Aspergillus fumigatus): 0% | inhibition of Fusarium subglutinans (Fusarium subglutinans): 67% | growth of Bacillus subtilus (Bacillus subtilus): Inhibited | growth of Candida albicans (Candida albicans): Growth Observed | growth of Escherichia coli (Escherichia coli): Inhibited | growth of Saccharomyces cerevicae (Saccharomyces cerevicae): Growth Observed

CCCC(=O)OCC(C)C [Isobutyl Butyrate]
inhibition of Cercospora beticola (Cercospora beticola): 100% | inhibition of Phytophthora cinnamomi (Phytophthora cinnamomi): 33% | inhibition of Pythium ultimum (Pythium ultimum): 100% | inhibition of Rhizoctonia solani (Rhizoctonia solani): 100% | inhibition of Trichoderma viridae (Trichoderma viridae): 47% | inhibition of Verticillium dahliae (Verticillium dahliae): 96% | inhibition of Sclerotinia sclerotiorum (Sclerotinia sclerotiorum): 70% | inhibition of Aspergillus fumigatus (Aspergillus fumigatus): 0% | inhibition of Fusarium subglutinans (Fusarium subglutinans): 33% | growth of Bacillus subtilus (Bacillus subtilus): No Growth | growth of Candida albicans (Candida albicans): Growth Observed | growth of Escherichia coli (Escherichia coli): No Growth | growth of Saccharomyces cerevicae (Saccharomyces cerevicae): Growth Observed

CC(C)COC(=O)C(C)C [Isobutyl Isobutyrate]
inhibition of Cercospora beticola (Cercospora beticola): 95% | inhibition of Phytophthora cinnamomi (Phytophthora cinnamomi): 0% | inhibition of Pythium ultimum (Pythium ultimum): 100% | inhibition of Rhizoctonia solani (Rhizoctonia solani): 86% | inhibition of Trichoderma viridae (Trichoderma viridae): 47% | inhibition of Verticillium dahliae (Verticillium dahliae): 92% | inhibition of Sclerotinia sclerotiorum (Sclerotinia sclerotiorum): 75% | inhibition of Aspergillus fumigatus (Aspergillus fumigatus): 80% | inhibition of Fusarium subglutinans (Fusarium subglutinans): 50% | growth of Bacillus subtilus (Bacillus subtilus): Inhibited | growth of Candida albicans (Candida albicans): Growth Observed | growth of Escherichia coli (Escherichia coli): Inhibited | growth of Saccharomyces cerevicae (Saccharomyces cerevicae): Growth Observed

CC(C)COC(=O)CC(C)C [Isobutyl Isovalerate]
inhibition of Cercospora beticola (Cercospora beticola): 95% | inhibition of Phytophthora cinnamomi (Phytophthora cinnamomi): 100% | inhibition of Pythium ultimum (Pythium ultimum): 100% | inhibition of Rhizoctonia solani (Rhizoctonia solani): 94% | inhibition of Trichoderma viridae (Trichoderma viridae): 20% | inhibition of Verticillium dahliae (Verticillium dahliae): 96% | inhibition of Sclerotinia sclerotiorum (Sclerotinia sclerotiorum): 0% | inhibition of Aspergillus fumigatus (Aspergillus fumigatus): 0% | inhibition of Fusarium subglutinans (Fusarium subglutinans): 67% | growth of Bacillus subtilus (Bacillus subtilus): Inhibited | growth of Candida albicans (Candida albicans): Growth Observed | growth of Escherichia coli (Escherichia coli): Inhibited | growth of Saccharomyces cerevicae (Saccharomyces cerevicae): Growth Observed

CCC(=O)OCC(C)C [Isobutyl Propionate]
inhibition of Cercospora beticola (Cercospora beticola): 100% | inhibition of Phytophthora cinnamomi (Phytophthora cinnamomi): 33% | inhibition of Pythium ultimum (Pythium ultimum): 100% | inhibition of Rhizoctonia solani (Rhizoctonia solani): 100% | inhibition of Trichoderma viridae (Trichoderma viridae): 40% | inhibition of Verticillium dahliae (Verticillium dahliae): 88% | inhibition of Sclerotinia sclerotiorum (Sclerotinia sclerotiorum): 80% | inhibition of Aspergillus fumigatus (Aspergillus fumigatus): 80% | inhibition of Fusarium subglutinans (Fusarium subglutinans): 67% | growth of Bacillus subtilus (Bacillus subtilus): No Growth | growth of Candida albicans (Candida albicans): Growth Observed | growth of Escherichia coli (Escherichia coli): No Growth | growth of Saccharomyces cerevicae (Saccharomyces cerevicae): Growth Observed
